Measurements reported in US20200109126A1 (priority 2017, published 2020).
“Also recorded” adds a separate entry of the source.

How the values were obtained:
δOR [1] = biological target: T1, δOR (Homo sapiens, UniProt P41143); experiment: Radioligand binding at δOR (PDSP)
T1 construct: NIMH Psychoactive Drug Screening Program (PDSP)

μOR [2] = biological target: T2, μOR (Homo sapiens, UniProt P35372); experiment: cell-based; assay type: cell-based
δOR [3] = biological target: T1, δOR; experiment: Gi/o Glosensor assay at δOR; assay type: cell-based; conditions: ND = not detectable
κOR = biological target: T3, κOR (Homo sapiens, UniProt P41145); experiment: Gi/o Glosensor assay at κOR; assay type: cell-based
T3 construct: NIMH Psychoactive Drug Screening Program (PDSP)
T3 sequence (P41145 whole entry): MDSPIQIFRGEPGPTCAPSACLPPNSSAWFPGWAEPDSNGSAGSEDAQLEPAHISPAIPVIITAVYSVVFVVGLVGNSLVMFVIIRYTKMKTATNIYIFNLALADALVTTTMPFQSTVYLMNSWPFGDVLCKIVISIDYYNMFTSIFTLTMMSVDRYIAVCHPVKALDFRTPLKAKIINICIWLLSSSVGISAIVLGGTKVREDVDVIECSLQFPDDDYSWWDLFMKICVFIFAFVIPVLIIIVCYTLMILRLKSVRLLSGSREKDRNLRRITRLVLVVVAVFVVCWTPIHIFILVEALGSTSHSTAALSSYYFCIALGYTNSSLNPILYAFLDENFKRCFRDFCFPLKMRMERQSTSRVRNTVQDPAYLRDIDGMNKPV

μOR [4] = biological target: T2, μOR; experiment: β-arrestin2 recruitment, PathHunter assay; assay type: cell-based
μOR [5] = biological target: T2, μOR; experiment: β-arrestin recruitment at μOR without GRK2; assay type: cell-based
μOR [6] = biological target: T2, μOR; experiment: β-arrestin recruitment at μOR with GRK2 co-expression; assay type: cell-based
hERG ion channel = hERG ion channel (Homo sapiens, UniProt Q12809); experiment: Inhibition of hERG channel; assay type: biochemical
Sequence of hERG ion channel (Q12809 whole entry): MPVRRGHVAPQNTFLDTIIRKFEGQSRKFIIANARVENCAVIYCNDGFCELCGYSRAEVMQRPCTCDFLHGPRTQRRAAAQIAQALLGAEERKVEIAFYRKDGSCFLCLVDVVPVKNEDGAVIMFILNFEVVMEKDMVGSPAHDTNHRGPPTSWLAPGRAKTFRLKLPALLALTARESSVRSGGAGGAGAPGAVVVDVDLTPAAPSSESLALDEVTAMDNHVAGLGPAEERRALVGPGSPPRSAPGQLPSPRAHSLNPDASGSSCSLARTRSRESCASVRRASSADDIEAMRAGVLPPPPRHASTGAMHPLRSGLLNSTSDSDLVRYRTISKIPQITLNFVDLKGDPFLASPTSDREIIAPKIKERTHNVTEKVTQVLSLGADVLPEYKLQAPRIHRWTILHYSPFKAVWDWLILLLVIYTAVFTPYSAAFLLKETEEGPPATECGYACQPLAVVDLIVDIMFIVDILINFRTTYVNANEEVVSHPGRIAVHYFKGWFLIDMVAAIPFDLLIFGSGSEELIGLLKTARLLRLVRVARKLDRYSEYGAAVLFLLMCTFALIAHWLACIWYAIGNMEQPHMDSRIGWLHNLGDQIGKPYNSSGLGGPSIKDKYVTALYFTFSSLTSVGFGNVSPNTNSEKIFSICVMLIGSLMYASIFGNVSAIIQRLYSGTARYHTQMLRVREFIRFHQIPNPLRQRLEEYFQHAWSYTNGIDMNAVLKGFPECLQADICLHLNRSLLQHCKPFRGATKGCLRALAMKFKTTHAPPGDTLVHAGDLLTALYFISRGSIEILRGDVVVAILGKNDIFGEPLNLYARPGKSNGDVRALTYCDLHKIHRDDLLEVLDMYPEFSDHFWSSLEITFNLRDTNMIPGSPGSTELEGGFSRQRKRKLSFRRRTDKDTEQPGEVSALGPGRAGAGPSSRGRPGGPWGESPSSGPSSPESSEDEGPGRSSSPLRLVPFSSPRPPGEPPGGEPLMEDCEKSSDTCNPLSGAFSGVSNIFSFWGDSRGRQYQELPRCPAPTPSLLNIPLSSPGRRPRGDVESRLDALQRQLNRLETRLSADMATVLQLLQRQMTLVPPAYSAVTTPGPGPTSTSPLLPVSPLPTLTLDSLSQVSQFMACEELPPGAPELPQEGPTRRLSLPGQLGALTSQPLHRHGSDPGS

320 non-olfactory GPCRs = experiment: PRESTO-Tango GPCRome β-arrestin recruitment screen for off-target agonism; assay type: cell-based; conditions: 10 μM, hits re-tested in full dose-response
Description: Potential positive receptor hits were defined as those that increase the relative luminescence value by two fold. […] A number of false positive hits were discounted by this approach.

μOR [7] = biological target: T2, μOR; experiment: Receptor internalization (PathHunter GPCR internalization assay); assay type: cell-based; conditions: maximal concentration
[8] = test system: Oprm1−/− and wild-type C57Bl/6J mice; experiment: Hot plate in μOR knockout mice and subcategorization of affective/reflexive pain; assay type: in vivo, mouse
Method: Analgesia in μOR knockout mice and subcategorization of affective/reflexive pain: Oprm1−/− and wild-type C57Bl/6J mice (male; 8-11 weeks) were acclimated to the testing environment and thermal-plate equipment for three non-consecutive days between 11 A.M. and 1 P.M. prior to any pharmacological studies. Acclimation was achieved by individually confining mice within an enclosed semi-transparent red plastic cylinder (10 cm D×15 cm H) on a raised metal-mesh rack (61 cm H) for 30 minutes, and then exposing each mouse to the thermal-plate equipment (non-heated; floor dimensions, 16.5×16.5 cm; Bioseb), while confined within a clear plastic chamber (16 L×16 W×30H cm). Acclimation exposure to the thermal plate lasted for 30 seconds, and exposure was repeated after 30 minutes to mimic the test day conditions. […] The same experimenter ([…] ) was present throughout the entire duration of habituation and testing to exclude possible olfaction-induced alterations in sensory thresholds.
Cutaneous application of a noxious stimulus, or time spent on a hot plate apparatus can broadly elicit several distinct behavioral responses: 1. Withdrawal reflexes: rapid reflexive retraction or digit splaying of the paw, 2. […] Paw withdrawal reflexes are classically measured in studies of hypersensitivity, and involve simple spinal cord and brainstem circuits. […]

C57BL/6J mice [9] = experiment: Conditioned place preference; conditions: mouse, in vivo
Method: On day 1 (preconditioning day), mice were placed in the central chamber and allowed to explore freely for 30 minutes. Time spent in each compartment was used to estimate baseline chamber preferences and mice showing specific chamber bias more than 70% were not studied further. On days 2-9 (conditioning days) mice were injected with either vehicle or drug and paired with either the white mesh or the black rod chambers. All mice received vehicle on days 2, 4, 6, 8 and drug on days 3, 5, 7, 9. On day 10 (test day), mice were again placed in the central chamber as on day 1 and allowed to explore freely for 30 minutes. Time spent in each chamber was expressed as percentage preference.

[10] = Pharmacokinetics of PZM21 (serum and brain); assay type: in vivo, mouse; conditions: 20 mg/kg subcutaneous
Method: Studies were performed by the Preclinical Therapeutics Core and the Drug Studies Unit at the University of California San Francisco.

[11] = Metabolism by mouse liver microsomes; assay type: in vitro ADME; conditions: over one hour
Method: Metabolism experiments were performed as described previously. In brief, pooled microsomes from male mouse liver (CD-1) were purchased (Sigma Aldrich) and stored at −75° C. until required. NADPH was purchased (Carl Roth) and stored at −8° C. The incubation reactions were carried out in polyethylene caps (Eppendorf, 1.5 mL) at 37° C. […] The final incubation volume was 0.5 mL. Microsomal reactions were initiated by addition of 50 μL of enzyme cofactor solution NADPH (final concentration of 1 mM). At 0, 15, 30 and 60 min the enzymatic reactions were terminated by addition of 500 μL of ice-cold acetonitrile (containing 8 μM internal standard), and precipitated protein was removed by centrifugation (15,000 rcf for 3 min). The supernatant was analyzed by HPLC/MS (binary solvent system, eluent acetonitrile in 0.1% aqueous formic acid, 10-40% acetonitrile in 8 min, 40-95% acetonitrile in 1 min, 95% acetonitrile for 1 min, flow rate of 0.3 mL/min). The experiments were repeated in three independent experiments. […] Substrate remaining and metabolite formation was calculated as a mean value+SEM of three independent experiments by comparing AUC of metabolites and substrate after predetermined incubation time to AUC of substrate at time 0, estimating a similar ionization rate, corrected by a factor calculated from the AUC of internal standard at each time point.

C57BL/6J mice [12] = experiment: Tail-flick assay; conditions: mouse, in vivo
C57BL/6J mice [13] = experiment: Hot-plate analgesia
C57BL/6J mice [14] = experiment: Formalin injection assay; conditions: PZM21 40 mg/kg
Method: Analgesia to formalin injection was carried out as described previously^66. Mice were first habituated for 20 minutes to the testing environment which included a home cage without bedding, food, and water. […] This was followed by injection of 20 μL of 1% formalin in 0.9% saline under the skin of the dorsal surface of the right hindpaw. Animals were returned to their home cage and behavioral responses were recorded for one hour. Nociception was estimated by measuring the cumulative time spent by animals licking the formalin-injected paw. As opioids classically display two phases of analgesic action, nociceptive behavior was measured during both the early phase (0 to 5 minutes) and the late phase (20 to 30 minutes).

C57BL/6J mice [15] = experiment: Cataleptic effect (bar test); conditions: PZM21 20 mg/kg
Method: Drug induced catalepsy was measured in mice using the bar test, which includes a horizontally placed 3 mm diameter wooden bar fixed 4 cm above the floor. […] To measure catalepsy, both forepaws were gently placed on the bar and the length of time during which each mouse remained in the initial position was measured. The effect was measured at 15, 30 and 90 minutes after drug injection. Maximum cut-off time for each challenge was 90 seconds.

C57BL/6J mice [16] = experiment: Open field locomotor response; conditions: PZM21 20 mg/kg, morphine 10 mg/kg

T2 sequence (P35372 whole entry): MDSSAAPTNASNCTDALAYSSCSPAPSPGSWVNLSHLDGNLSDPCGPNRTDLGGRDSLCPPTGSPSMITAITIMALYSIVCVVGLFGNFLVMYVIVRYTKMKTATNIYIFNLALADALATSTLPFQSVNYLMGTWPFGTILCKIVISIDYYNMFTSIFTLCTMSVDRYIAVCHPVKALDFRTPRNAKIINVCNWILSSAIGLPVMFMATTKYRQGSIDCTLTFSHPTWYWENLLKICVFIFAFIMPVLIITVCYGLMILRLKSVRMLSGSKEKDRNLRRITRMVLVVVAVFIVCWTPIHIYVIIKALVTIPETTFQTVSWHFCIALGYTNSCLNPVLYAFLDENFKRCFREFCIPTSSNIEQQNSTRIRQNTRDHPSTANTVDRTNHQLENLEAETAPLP
T1 sequence (P41143 whole entry): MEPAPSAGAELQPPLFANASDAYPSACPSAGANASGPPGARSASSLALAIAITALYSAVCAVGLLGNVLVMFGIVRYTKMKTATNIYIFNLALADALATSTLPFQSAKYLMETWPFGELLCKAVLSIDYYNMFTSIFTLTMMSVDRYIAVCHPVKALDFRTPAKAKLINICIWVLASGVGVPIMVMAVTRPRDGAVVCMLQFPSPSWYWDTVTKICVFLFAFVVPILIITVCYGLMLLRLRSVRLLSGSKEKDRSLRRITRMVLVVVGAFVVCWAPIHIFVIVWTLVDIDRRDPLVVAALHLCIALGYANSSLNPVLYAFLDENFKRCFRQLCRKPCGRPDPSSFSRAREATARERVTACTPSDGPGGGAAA

C[C@@H](Cc1ccsc1)NC(=O)NC[C@H](Cc1ccc(O)cc1)N(C)C [PZM21, 1-[(S)-2-(Dimethylamino)-3-(4-hydroxyphenyl)propyl]-3-((S)-1-(thiophen-3-yl)propan-2-yl)urea]
Ki (δOR [1]): 506 nM
Gi/o activation, μOR agonist activity (in words) (μOR [2]): robust μOR agonist activity
EC50 (δOR [3]): 1900 nM
KOR agonist activity (in words) (κOR): no detectable
mode of action at KOR (κOR; antagonist mode): antagonist
β-arrestin2 recruitment (in words) (μOR [4]): undetectable; also recorded: minimal recruitment of β-arrestin2; also recorded: no detectable
Arrestin Emax % DAMGO (μOR [5]): 15 % DAMGO
β-arrestin2 recruitment in the absence of GRK2 (in words) (μOR [5]): no β-arrestin2 recruitment
arrestin recruitment with over-expressed GRK2 (in words) (μOR [6]): weak arrestin recruitment efficacy compared to DAMGO and even to morphine
signaling bias (μOR [6]; operational model, DAMGO as reference): undistinguishable from TRV130
IC50 (hERG ion channel): 2 to 4 µM
agonism against 316 other GPCRs (320 non-olfactory GPCRs): no potent activity was confirmed
μOR internalization (μOR [7]): minimal level of μOR internalization compared to DAMGO and morphine
affective versus reflexive component of pain ([8]; hot plate 52.5° C., PZM21 20 mg/kg, 20 mg/kg): only modulates the affective component of pain; also recorded: solely confers analgesia to the affective component of pain
analgesic response in μOR knockout mice ([8]; hot-plate assay): completely ablates the observed analgesic response
conditioned place preference (C57BL/6J mice [9]): does not induce a conditioned place preference response
blood brain barrier penetration [10]: substantial fraction of PZM21 crosses the blood brain barrier
metabolism by mouse liver microsomes [11]: 8%
analgesic effect in tail-flick assay (C57BL/6J mice [12]): no activity; also recorded: no analgesic effect
duration of analgesia (C57BL/6J mice [13]; hot plate): up to 180 minutes
percent maximal possible effect (% MPE) (C57BL/6J mice [13]; hot plate, highest dose of drug tested, 15 minutes after administration): 87%
analgesia in hot-plate assay (in words) (C57BL/6J mice [13]; mouse, subcutaneous): dose-dependent analgesia
activity in formalin injection nociception assay (C57BL/6J mice [14]): active
cataleptic behavior (C57BL/6J mice [15]): does not induce cataleptic behavior
open field locomotion (C57BL/6J mice [16]): does not induce open field locomotion; also recorded: no apparent effect on locomotion versus vehicle
